Experimental data: article PMC10056567, “Structural Insights into the Ligand–LsrK Kinase Binding Mode: A Step Forward in the Discovery of Novel Antimicrobial Agents” (Molecules, 2023)

Key:
LsrK (ecLsrK) [1] = target: T1, LsrK (ecLsrK) (Escherichia coli, UniProt P77432); assay: tryptophan fluorescence quenching, modified Stern-Volmer; format: binding; design: 530 residues; conditions: 0.1 uM LsrK, PBS pH 7.4, 25 °C
LsrK (ecLsrK) [2] = target: T1, LsrK (ecLsrK); assay: biochemical

T1 sequence (P77432 whole entry): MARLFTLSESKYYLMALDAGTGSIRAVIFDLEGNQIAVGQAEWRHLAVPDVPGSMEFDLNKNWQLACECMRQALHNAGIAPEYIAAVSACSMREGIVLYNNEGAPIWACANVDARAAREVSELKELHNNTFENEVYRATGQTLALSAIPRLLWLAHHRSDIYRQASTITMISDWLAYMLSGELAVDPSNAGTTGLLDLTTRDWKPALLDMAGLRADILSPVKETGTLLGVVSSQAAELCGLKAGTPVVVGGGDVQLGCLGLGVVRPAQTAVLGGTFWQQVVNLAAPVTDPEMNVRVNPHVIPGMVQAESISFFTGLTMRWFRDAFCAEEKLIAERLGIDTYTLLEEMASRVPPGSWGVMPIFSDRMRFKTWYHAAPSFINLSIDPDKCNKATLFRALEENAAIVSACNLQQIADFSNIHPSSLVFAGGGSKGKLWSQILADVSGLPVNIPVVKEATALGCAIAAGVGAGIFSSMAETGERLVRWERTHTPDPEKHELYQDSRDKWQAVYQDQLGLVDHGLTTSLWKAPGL

SMILES | Kd (LsrK (ecLsrK) [1]) [µM] | Kd (LsrK (ecLsrK) [2]) [µM]
Nc1ncnc2c1ncn2[C@@H]1O[C@H](COP(=O)(O)OP(=O)(O)OP(=O)(O)O)[C@@H](O)[C@H]1O [ATP] | – | 5.07 ± 0.23
Cc1cc(O)c(C=O)c2c1C(=O)Oc1c(COC(=O)/C=C/C(=O)O)c(O)c(C(=O)O)c(C)c1O2 [FP, fumarprotocetraric acid] | 0.217 ± 0.008 | –

Further lines, with some results ahead:

Kd (LsrK (ecLsrK) [1]) [µM] | SMILES | Kd (LsrK (ecLsrK) [2]) [µM]
0.19 | COc1cc(C)cc2cc3c(c(O)c12)C(=O)CC[C@H]3O [(R)-ASME] | –
0.14 | O=CC1=C(O)C=CCO1 [Hib-carbaldehyde, 5-hydroxy-2H-pyran-6-carbaldehyde] | –
0.078 | COC(=O)[C@@H]1OC(=O)C[C@@]1(O)C(=O)OC [Hib-ester, dimethyl (2R,3S)-3-hydroxy-5-oxotetrahydrofuran-2,3-dicarboxylate] | –
